Experiment in all cases: Cell survival / percentage killing of a culture exposed to an agent (viable counts)
In test [1] the test system is Vancomycin-resistant Enterococci. Format: cell-based, Enterococcus. The settings on record: for killing effect / mode of action on Vancomycin-resistant Enterococci (in words): methyl/propyl paraben Na salt 0.25% (w/v) (1:1) and/or lauric acid Na salt 0.50% (w/v), sodium salt. Here is the method: (§1) Determination of the Cell Counts
(§2) This was achieved by a number of different techniques depending on the circumstances involved. The techniques used were:
(§3) 1. Standard spread plate technique
(§4) This involves spreading a 100 μl aliquot of the desired dilution onto well dried agar plates using an alcohol flamed hockey stick.
(§5) In this method 1 ml samples of the diluted culture are placed into a sterile petri dish and then sterile cooled agar is added. The plate is then gently swirled to facilitate a […] mixing of the sample and the agar and allowed to solidify before being incubated at the temperature of choice in an inverted manner.
(§6) 3. Spot/drop plating method
(§7) This method involves the placing of a sample or the diluted sample onto a pre-dried agar plate but the sample is allowed to dry into the plate. Usually an aliquot of 5-20 μl is chosen to be thus plated. This method offers the advantages of being both economical in terms of agar plates (several drops can be readily accommodated on one agar plate) and also accurate.
(§8) All plates were incubated for 16 hours before being counted.
(§9) All dilutions were carried out in ¼×Ringers solution and all bacteria were grown up in Tryptic Soy Broth (TSB)
(§10) Determination of the cell survival/percentage killing of a culture with respect to exposure to a given agent.
(§11) In this method a sample of a fresh overnight culture was titred and a sample (usually 5 mls) was added to either broth (100mls) containing the test reagents or sterile water (100 mls) and test agents.
(§12) Immediately a sample (T0) was taken and plated using one of the techniques listed above. At regular intervals thereafter other samples were also removed, diluted and plated.
(§13) Error is 1 standard deviation of the mean.

Test [2] relates to MRSA strain S13. Format: cell-based, Methicillin Resistant Staphylococcus aureus. Conditions: for Percentage of cells killed after 5 minutes exposure, MRSA (S13): 0.5% lauric acid Na salt and/or 0.25% Parabens Na salt, sodium salt. As for the experimental part: as §1, §2, §3, §4, §5, §6, §7, §8, §9, §10, §11, §12, §13
In test [3] the test system is Ps. aeruginosa (lab isolate). Format: cell-based, Pseudomonas aeruginosa. Conditions: for Percentage of cells killed after 5 minutes exposure, Ps. aeruginosa: 0.5% lauric acid Na salt and/or 0.25% Parabens Na salt, sodium salt. As for the experimental part: as §1, §2, §3, §4, §5, §6, §7, §8, §9, §10, §11, §12, §13
Test [4] concerns E. coli (lab isolate). Type of test: cell-based, Escherichia coli. The settings on record: 0.5% lauric acid Na salt and/or 0.25% Parabens Na salt. Here is the method: as §1, §2, §3, §4, §5, §6, §7, §8, §9
Determination of the cell survival/percentage killing of a culture with respect to exposure to a given agent. […]

The mark [5] stands for this setting: methyl/propyl paraben Na salt 0.25% (w/v) (1:1) and/or lauric acid Na salt 0.50% (w/v).

As to `CCCCCCCCCCCC(=O)[O-].[Na+]` [lauric acid Na salt, lauric acid sodium salt], the “Percentage of cells killed after 5 minutes exposure, Vancomycin Resistant Enterococcus” value in test [1] (5 minutes, 0.5% lauric acid Na salt and/or 0.25% Parabens Na salt) is 100. Moreover, the kill rate in test [1] (after 5 mins) was determined as 100%. Also, the “survivors present when samples were plated” value is on record as “no survivors” in test [1] (after 5 mins, T0 count 4.63×10^7 cfu/ml) and “no survivors” in test [1] (strain FPL050, after 5 mins). In addition, the “killing effect / mode of action on Vancomycin-resistant Enterococci (in words)” value in test [1] (listed as Lauric acid Na salt) is reported as “bactericidal”; in test [1] (listed as lauric acid), “totally destroyed”. For the same compound, the “reduction of a population of MRSA” value in test [2] (0.50% lauric acid Na salt, isolate S13 in water held at 37° C., over 2 hrs) is reported as 99.8%. The “killing of MRSA” value in test [2] (0.50% lauric acid Na salt, repeated experiment, after 30 mins) is recorded as 99.6%; in test [2] (1.75% lauric acid Na salt, isolate S13, over 2 hrs) it was less than 99.0%. The “Percentage of cells killed after 5 minutes exposure, MRSA (S13)” value is “more than 97” in test [2] (listed as lauric acid) and more than 97 in test [2]. In addition, the “killing effect / mode of action on MRSA isolate S13 (in words)” value in test [2] (setting [5]) is reported as “does elicit killing effect”. For the same compound, the figures for the “Percentage of cells killed after 5 minutes exposure, Ps. aeruginosa” value in test [3] (listed as lauric acid) and in test [3] were 13 and more than 13, respectively. Further, the “killing effect / mode of action on Ps. aeruginosa (in words)” value in test [3] (setting [5]) was “not effective”. Moreover, in test [4], the “Percentage of cells killed after 5 minutes exposure, E. coli” value is more than 90.

The record behind these values is patent publication US6461624B2, “Skin-protective composition” (priority 1997, dated 2002).
